Where two headings read alike, the source gives them in different places.
Assays:
[1] = test system: spontaneous locomotion (Swiss-Webster male mice); assay: Inhibition of locomotor activity-screen fall-off test; type: in vivo, mouse (Swiss-Webster male mice); settings: Mus musculus, ip, 1 h, intraperitoneal, one hour prior to testing, locomotion accumulated for one hour
Description: ANIMALS: Nine unfasted Swiss-Webster male mice (Buckberg Labs) weighing 20-30 g are equally divided into three groups for each drug dose to be tested. That is, data for each dose level was generated by three separate groups of three mice each.
DRUGS: A minimum of three dose levels (10, 30, and 100 mg/kg) are tested for each drug. Treatments are administered intraperitoneally one hour prior to testing. All dosages are calculated as parent compound. Compounds are dissolved or suspended in 0.2% methocel. Control animals are injected with methocel.
TESTING: A two-part testing procedure is started one hour postinjection. First, the screen test is performed (see Pharmac Biochem Behav 6, 351-353, 1977). Briefly, this test consists of placing mice on individual wire screens which are then rotated 180° at the start of a 60-second observation period. The number of mice falling off the inverted screen is recorded.
Immediately following the screen test, the final phase of testing is initiated by placing each group of three mice in one actophotometer (Life Sciences, 22, 1067-1076, 1978). The actophotometer consists of a cylindrical chamber whose center is occupied by another cylinder which contains the illumination for six photocells located on the perimeter of the chamber. Six light-beam interruptions equal one count. Locomotor activity is recorded by computer at ten-minute intervals for 60 minutes.
DATA: The data obtained from the screen test are expressed as percent of mice falling off the screen. Data derived from locomotor activity of drug-treated mice are compared to the activity of vehicle-treated animals and are expressed as percent inhibition of spontaneous locomotion. All percentages reported for inhibition of locomotion are based upon data accumulated for one hour. Both phases of testing are graded: A=60-100%; C=31-59%; and N=0-30%. An overall dose rating is obtained by the following criteria.
All other combinations = N
Utilizing this procedure, an overall dose rating of A was obtained for the noted compounds at the indicated dose, ED50 s, as reported in Table 1.

[2] = target: T1, dopamine receptors (striatal membranes) (Rattus norvegicus, UniProt P61169); assay: [^3 H]Haloperidol binding assay; parameters: species or system rat (Long-Evans hooded rats); settings: 0.6 nM [^3 H]-haloperidol, pH 7.6, 25° C., 40 minutes
T1 construct: striatal membranes prepared from Long-Evans hooded rats; from tissue; host or cells: corpus striatum of Long-Evans hooded rats (membrane homogenate)
T1 sequence (P61169 whole entry): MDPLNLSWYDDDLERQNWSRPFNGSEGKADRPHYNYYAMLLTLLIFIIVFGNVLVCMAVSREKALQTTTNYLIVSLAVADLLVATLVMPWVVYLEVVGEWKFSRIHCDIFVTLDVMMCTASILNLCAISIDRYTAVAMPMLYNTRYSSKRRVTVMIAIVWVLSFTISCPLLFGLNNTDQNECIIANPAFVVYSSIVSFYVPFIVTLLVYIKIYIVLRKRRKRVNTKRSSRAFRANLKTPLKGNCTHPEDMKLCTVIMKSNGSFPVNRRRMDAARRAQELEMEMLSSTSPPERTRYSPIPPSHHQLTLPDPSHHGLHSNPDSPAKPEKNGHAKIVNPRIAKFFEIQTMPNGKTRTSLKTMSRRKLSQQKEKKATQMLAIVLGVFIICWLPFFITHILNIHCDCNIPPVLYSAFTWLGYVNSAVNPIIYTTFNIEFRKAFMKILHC
Description: The antipsychotic activity of representative compounds of the invention was also established by the [^3 H]haloperidol binding assay method which is described in Mol. Pharmacol. 12, 800 (1976) and reports excellent correlation between the amount of binding and clinical potency.
[^3 H]Haloperidol Binding Assay. The relative affinities of compounds for dopamine receptors were evaluated on the basis of their ability to displace [^3 H]-haloperidol from striatal membranes prepared from Long-Evans hooded rats. Rats were decapitated; the brains were removed, and the corpus striata were dissected. The corpus striata were homogenized in 40 volumes of […] Tris buffer (pH 7.6) and centrifuged. Pellets were rehomogenized in 50 volumes of the same buffer and used for the binding assay. Incubations were carried out in 10 ml of […] Tris-HCl buffer (pH 7.6) containing 2 mg/ml of original wet tissue weight of homogenate, 100 μl of test agent or solvent, and 0.6 nM of [^3 H]-haloperidol. Nonspecific binding was determined in the presence of 0.1 μM (+)-butaclamol. Samples were incubated in reciprocating water bath at 25° C. for 40 minutes. Incubation was terminated by rapid filtration under reduced pressure through glass fiber filters (Whatman GF/B). The filters were rinsed three times with 10 ml of Tris-HCl buffer. The filters were placed in 10 ml of scintillation cocktail (Beckman Ready-Solv HP) and shaken for one hour. Radioactivity retained on the filter was determined by liquid scintillation spectrophotometry. IC50 s when determined were calculated from a nonlinear computer curve, fit on the data from […], each done in triplicate.

[3] = rat striatal membranes, read-out: ^3 H-Haloperidol Binding IC50
[4] = ^3 H-Haloperidol Binding IC50, rat striatal membranes

SMILES | ED50 [1] | IC50 [2, 3] | IC50 [2, 4]
CC1(C)CC(=O)c2ccc(OCCCN3CCN(c4ccccc4)CC3)cc2O1 [Example 1, 2,3-Dihydro-2,2-dimethyl-7-(3-(4-phenyl)-1-piperizinyl)propoxy-4H-benzopyran-4-one] | 5.9 mg/kg | 300 nM | –
CC1(C)CC(=O)c2ccc(OCCCN3CC=C(c4ccccc4)CC3)cc2O1 [Example 2A, 7-[3-[3,6-dihydro-4-phenyl-1(2H)-pyridinyl)propoxy]-2,3-dihydro-2,2-dimethyl-4H-benzopyran-4-one] | 4.8 mg/kg | – | < 100 nM
O=C1COc2cc(OCCCN3CCN(c4ccccc4)CC3)ccc21 [Example 2B, 6-[3-(4-phenyl-1-piperazinyl)propoxy]-3-(2H)-benzofuranone] | 3.7 mg/kg | 100 nM | –
O=C1COc2cc(OCCCN3CC=C(c4ccccc4)CC3)ccc21 [Example 2C] | 3.5 mg/kg | – | < 100 nM
c1ccc(N2CCN(CCCOc3ccc4c(c3)OCCC4)CC2)cc1 [Example 2D, 1-[3-[(3,4-dihydro-2H-1-benzopyran-7-yl)oxy]propyl]-4-phenylpiperazine] | 2.7 mg/kg | 70 nM | –
O=C1COc2ccc(OCCCN3CCN(c4ncccn4)CC3)cc2N1 [Example 2E, 6-[3-[4-(2-pyrimidinyl)-1-piperazinyl]propoxy]-2H-1,4-benzoxazine-3(4H)-one] | 1 mg/kg | 1000 nM | –
C1=C(c2ccccc2)CCN(CCCOc2cccc3[nH]ccc23)C1 [Example 2F, 4-[3-(3,6-dihydro-4-phenyl-1(2H)-pyridinyl)propoxy]-1H-indole] | 2.5 mg/kg | – | 40 nM
C1=C(c2ccccc2)CCN(CCCCOc2cccc3[nH]ccc23)C1 [Example 2G, 4-[4-(3,6-dihydro-4-phenyl-1(2H)-pyridinyl)butoxy]-1H-indole] | 1.4 mg/kg | – | 50 nM
C1=C(c2ccccc2)CCN(CCCCOc2ccc3[nH]ccc3c2)C1 [Example 2H, 5-[4-(3,6-dihydro-4-phenyl-1(2H)-pyridinyl)butoxy]-1H-indole] | 0.5 mg/kg | – | 10 nM
C1=C(c2ccccc2)CCN(CCCOc2ccc3cc[nH]c3c2)C1 [Example 2I, 6-[3-(3,6-dihydro-4-phenyl-1(2H)-pyridinyl)propoxy]-1H-indole] | 2.8 mg/kg | – | 100 nM
c1cnc(N2CCN(CCCOc3ccc4cc[nH]c4c3)CC2)nc1 [Example 2J, 6-[3-[4-(2-pyrimidinyl)-1-piperazinyl]propoxy]-1H-indole] | 3.2 mg/kg | 200 nM | –
c1ccc(N2CCN(CCCOc3ccc4ncccc4c3)CC2)cc1 [Example 2K, 6-[3-(4-phenyl-1-piperazinyl)propoxy]-quinoline] | 0.5 mg/kg | 90 nM | –
c1cnc(N2CCN(CCCCOc3ccc4ncccc4c3)CC2)nc1 [Example 2L, 6-[4-[4-(2-pyrimidinyl)-1-piperazinyl]butoxy]quinoline] | 0.9 mg/kg | 50 nM | –
C1=C(c2ccccc2)CCN(CCCCOc2ccc3ncccc3c2)C1 [Example 2M, 6-[4-(3,6-dihydro-4-phenyl-1(2H)-pyridinyl)butoxy]quinoline] | 1.1 mg/kg | – | 17 nM
c1cnc(N2CCN(CCCCOc3cccc4ncccc34)CC2)nc1 [Example 2N, 5-[4-[4-(2-pyrimidinyl)-1-piperazinyl]butoxy]quinoline] | – | 180 nM | –
C1=C(c2ccccc2)CCN(CCCOc2cccc3cnccc23)C1 [Example 2O, 5-[3-(3,6-dihydro-4-phenyl-1(2H)-pyridinyl)propoxy]isoquinoline] | 0.18 mg/kg | – | 33 nM
c1ccc(N2CCN(CCCOc3cccc4cnccc34)CC2)nc1 [Example 2P, 5-[3-[4-(2-pyridinyl)-1-piperazinyl]propoxy]isoquinoline] | 3 mg/kg | 645 nM | –
c1ccc(N2CCN(CCCOc3cccc4cnccc34)CC2)cc1 [Example 2Q, 5-[3-(4-phenyl-1-piperazinyl)propoxy]isoquinoline] | 0.29 mg/kg | 206 nM | –
c1cnc(N2CCN(CCCOc3cccc4cnccc34)CC2)nc1 [Example 2R, 5-[3-[4-(2-pyrimidinyl)-1-piperazinyl]propoxy]isoquinoline] | 19.5 mg/kg | 947 nM | –
c1cnc(N2CCN(CCCCOc3cccc4ncccc34)CC2)nc1 [Example 2S, 5-[4-[4-(2-pyrimidinyl)-1-piperazinyl]butoxy]quinoline] | 7.7 mg/kg | 184 nM | –
c1ccc(N2CCN(CCCOc3ccc4cccnc4c3)CC2)nc1 [Example 2T, 7-[3-[4-(2-pyridinyl)-1-piperazinyl]propoxy]quinoline] | 0.17 mg/kg | 230 nM | –
c1ccc(N2CCN(CCCOc3ccc4cccnc4c3)CC2)cc1 [Example 2U, 7-[3-(4-phenyl-1-piperazinyl)propoxy]quinoline] | 0.1 mg/kg | 50 nM | –
c1cnc(N2CCN(CCCOc3ccc4cccnc4c3)CC2)nc1 [Example 2V, 7-[3-[4-(2-pyrimidinyl)-1-piperazinyl]propoxy]quinoline] | 1 mg/kg | 900 nM | –
Oc1nccc2c(OCCCN3CCN(c4ccccn4)CC3)cccc12 [Example 2W, 5-[3-[4-(2-pyridinyl)-1-piperazinyl]propoxy]-1-isoquinolinol] | 6.1 mg/kg | 651 nM | –
O=C1NCCc2c(OCCCN3CCN(c4ccccn4)CC3)cccc21 [Example 2X] | 4.4 mg/kg | 431 nM | –
c1ccc(N2CCN(CCCOc3ccc4[nH]cnc4c3)CC2)cc1 [Example 3, 5-[3-(4-Phenylpiperazinyl)propyloxy]-1H-benzimidazole] | 4.9 mg/kg | – | 120 nM
O=C1Cc2cc(OCCCN3CCN(c4ccccc4)CC3)ccc2N1 [Example 4, 1,3-dihydro-5-[3-(4-phenyl-1-piperazinyl)propoxy]-2H-indole-2-one] | 0.4 mg/kg | 160 nM | –
c1ccc(N2CCN(CCCOc3ccc4ccoc4c3)CC2)cc1 [Example 5, 1-[3-[6-Benzofuranyloxy]propyl]-4-phenylpiperazine] | 8.8 mg/kg | 500 nM | –

From patent publication US4803203A, “Phenyl and heterocyclic piperazinyl alkoxy-benzheterocyclic compounds as antipsychotic agents” (Warner-Lambert Company, priority 1987, dated 1989)
